Data as given in paper PMC6934184, “Selective DNA-PKcs inhibition extends the therapeutic index of localized radiotherapy and chemotherapy” (The Journal of Clinical Investigation, 2019).

Target: T1, EPHA3 (Homo sapiens, UniProt P29320)
T1 construct: purchased Thermo Fisher Scientific (Life Technologies) SelectScreen
Assay: SelectScreen LanthaScreen
Type: binding
Details: read-out: % displacement
In short: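 Percent values come from Thermo SelectScreen profiling of NU5455, combining activity and binding assays. CSF1R was run in Z'LYTE format at Km app ATP, and CAMK1 in Adapta format with ATP listed at 10.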

T1 sequence (P29320 21-983): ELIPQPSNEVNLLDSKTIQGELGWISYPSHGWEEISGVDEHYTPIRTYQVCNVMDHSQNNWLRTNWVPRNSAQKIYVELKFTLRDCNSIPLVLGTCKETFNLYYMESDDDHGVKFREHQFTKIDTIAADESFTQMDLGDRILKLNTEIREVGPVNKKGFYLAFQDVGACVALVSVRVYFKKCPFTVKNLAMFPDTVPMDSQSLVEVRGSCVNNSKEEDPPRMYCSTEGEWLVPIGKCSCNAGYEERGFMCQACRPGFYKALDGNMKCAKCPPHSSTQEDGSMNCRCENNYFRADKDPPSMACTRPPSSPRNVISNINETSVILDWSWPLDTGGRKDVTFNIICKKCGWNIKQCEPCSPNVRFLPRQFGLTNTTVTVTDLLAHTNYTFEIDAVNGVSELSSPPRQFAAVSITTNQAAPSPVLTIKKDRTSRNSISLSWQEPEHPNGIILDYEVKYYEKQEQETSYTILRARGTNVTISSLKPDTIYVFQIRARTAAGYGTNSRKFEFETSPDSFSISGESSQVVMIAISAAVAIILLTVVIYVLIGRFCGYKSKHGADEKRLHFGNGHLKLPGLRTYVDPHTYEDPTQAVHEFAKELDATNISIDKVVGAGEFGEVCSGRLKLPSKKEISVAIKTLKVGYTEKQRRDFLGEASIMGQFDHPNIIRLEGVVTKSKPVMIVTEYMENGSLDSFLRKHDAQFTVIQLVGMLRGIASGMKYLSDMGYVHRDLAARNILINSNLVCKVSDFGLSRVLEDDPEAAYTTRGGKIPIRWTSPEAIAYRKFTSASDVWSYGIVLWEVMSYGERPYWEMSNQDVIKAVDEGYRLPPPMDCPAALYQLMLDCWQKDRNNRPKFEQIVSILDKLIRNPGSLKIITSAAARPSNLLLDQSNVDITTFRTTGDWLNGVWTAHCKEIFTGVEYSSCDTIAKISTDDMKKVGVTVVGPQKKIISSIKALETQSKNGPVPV

With CN(C(=O)CN1CCOCC1)c1ccc2sc3c(-c4cccc5c(=O)cc(N6CC7CCC(C6)O7)oc45)cccc3c2c1 [NU5455] the inhibition at 1 µM was -0.3%.
